Assay results: US20150132328A1 (priority 2011, published 2015)
Like-named read-outs stand apart in the source and are kept apart here. Marks after values point to notes of the source that are not given here.

Experiments:
newborn rat thymocytes = tested on: newborn rat thymocytes
From the text: It was used an octapeptide with similar weight for the elaboration of the complex, to which was just the proline (4) and Glycine (5) original amino acids were interchanged by proline (4) and Glycine (5) resulting as […].

LR.4 lymphoma [1] = details: LR.4 + IMMP
From the text: Thymus and spleen were studied since they correspond to lymphatic organs, liver which corresponds to the main organ to which the metastases of abdominal tumors and kidney are directed are directed by their high blood irrigation.

LR.4 cells = tested on: LR.4 cells
From the text: (§1) The cellular viability that was quantified by the MTT method, indicates the mitochondrial activity.

BMK-16myc cells = tested on: BMK-16myc cells
From the text: We used BMK-16myc cells which are baby mouse kidney cells immortalized with genes of 16 protein of the human papilloma virus (HPV) and the myc gene, which grow in mouse, are highly invasive and produce metastases rapidly. One million cells were implanted subcutaneously in the back of each mouse. […] Subsequently, the animals were sacrificed and the tumors under the back skin as well as thymus, spleen, liver and kidney were collected for histopathological examination.
as §1

THP-1 cells = details: IMMP 10^−10M, no cortisone
[2] = tested on: rats with acute hepatitis induced with CCI4;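 further: endpoints determined in blood and liver tissue collected when the rats were sacrificed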
LR.4 lymphoma [3] = tested on: LR.4 lymphoma
platelets [4] = tested on: platelets
platelets [5] = details: three dosages
[6] = Acute Hepatitis + IMMP, time of CCI4 24
[7] = Acute Hepatitis + IMMP, time of CCI4 48
[8] = Acute Hepatitis + IMMP, time of CCI4 72

## Peptide LEDGPKFL + Zinc [IMMP]
Newborn rat thymocytes; 10^-10 M, With-A
  Increase of thymocytes proliferation: 35%
Newborn rat thymocytes; 10^−6 (918 ng/mL), 24 hours
  Proliferation (% with respect to the control): 106.6 ± 3.0%
Newborn rat thymocytes; 10^−6 (918 ng/mL), Con A 50 pg/mL
  Proliferation (% with respect to the control): 126.6 ± 3.0%
Newborn rat thymocytes; 10^−7 (91.8 ng/mL), 24 hours
  Proliferation (% with respect to the control): 125.1 ± 2.6 %
Newborn rat thymocytes; 10^−7 (91.8 ng/mL), Con A 50 pg/mL
  Proliferation (% with respect to the control): 125.1 ± 2.6 %
Newborn rat thymocytes; 10^−7.5 (9.58 ng/mL), Con A 50 pg/mL
  Proliferation (% with respect to the control): 127.4 ± 3.0 %
Newborn rat thymocytes; 10^−8 (9.18 ng/mL), 24 hours
  Proliferation (% with respect to the control): 120.3 ± 2.7 %
Newborn rat thymocytes; 10^−8 (9.18 ng/mL), Con A 50 pg/mL
  Proliferation (% with respect to the control): 128.3 ± 2.7 %
Newborn rat thymocytes; 10^−9 (0.91 ng/mL), 24 hours
  Proliferation (% with respect to the control): 123.3 ± 3.4 %
Newborn rat thymocytes; 10^−9 (0.91 ng/mL), Con A 50 pg/mL
  Proliferation (% with respect to the control): 133.3 ± 3.4 %
Newborn rat thymocytes; 10^−10 (0.09 ng/mL), 24 hours
  Proliferation (% with respect to the control): 135.6 ± 3.1 %
Newborn rat thymocytes; 10^−10 (0.09 ng/mL), Con A 50 pg/mL
  Proliferation (% with respect to the control): 135.6 ± 3.1 %
Newborn rat thymocytes; 10^−11 (0.009 ng/mL), 24 hours
  Proliferation (% with respect to the control): 130.5 ± 1.4 %
Newborn rat thymocytes; 10^−11 (0.009 ng/mL), Con A 50 pg/mL
  Proliferation (% with respect to the control): 130.5 ± 1.4 %
Newborn rat thymocytes; 10^−12 (0.0009 ng/mL), Con A 50 pg/mL
  Proliferation (% with respect to the control): 120.3 ± 3.2 %
LR.4 lymphoma [1]; Kidney
  Metastases (animals with metastases detected/total number of animals): 0/5
LR.4 lymphoma [1]; Liver
  Metastases (animals with metastases detected/total number of animals): 0/5
LR.4 lymphoma [1]; Spleen
  Metastases (animals with metastases detected/total number of animals): 0/5
LR.4 lymphoma [1]; Thymus
  Metastases (animals with metastases detected/total number of animals): 0/5
LR.4 cells
  Increase of LR.4 cells: 20%
LR.4 cells; IMMP (M) −8
  Cells proliferation (control percent, MTT): 115 ± 5.4 %
LR.4 cells; IMMP (M) −9
  Cells proliferation (control percent, MTT): 118 ± 6.7 %
LR.4 cells; IMMP (M) −10
  Cells proliferation (control percent, MTT): 120 ± 8.5 %
LR.4 cells; IMMP (M) −11
  Cells proliferation (control percent, MTT): 110 ± 10.9 %
LR.4 cells; IMMP (M) −12
  Cells proliferation (control percent, MTT): 104 ± 4.3%
BMK-16myc cells
  Difference with respect to control: not observed any difference with respect to control
BMK-16myc cells; IMMP (M) −8
  Cells proliferation (control percent, MTT): 102 ± 2.9%
BMK-16myc cells; IMMP (M) −9
  Cells proliferation (control percent, MTT): 104 ± 3.1%
BMK-16myc cells; IMMP (M) −10
  Cells proliferation (control percent, MTT): 102 ± 3.5%
BMK-16myc cells; IMMP (M) −11
  Cells proliferation (control percent, MTT): 103 ± 2.7%
BMK-16myc cells; IMMP (M) −12
  Cells proliferation (control percent, MTT): 102 ± 3.1%
THP-1 cells
  Cell Viability (% with respect to the control): 180 ± 5%
[2]; [6]
  Serum ALT: 351.0 ± 10.4 UI/L
  Serum AST: 493.6 ± 30.3 UI/L
  Serum PA (alkaline phosphatase): 1139.0 ± 86.8 UI/L
[2]; [7]
  Serum ALT: 275.54 ± 22.3 UI/L
  Serum AST: 377.0 ± 17.7 UI/L
  Serum PA (alkaline phosphatase): 1287.5 ± 83.6 UI/L
[2]; [8]
  Serum ALT: 233.0 ± 20.8 UI/L
  Serum AST: 230.2 ± 15.4 UI/L
  Serum PA (alkaline phosphatase): 1306.2 ± 90.7 UI/L
[2]; CCI4 + IMMP, 24 hours
  Hepatic glutathione: 13.3 ± 3.3 ng/mg of tissue
[2]; CCI4 + IMMP, 24 hours after CCI4
  Relative weight of the liver (organ weight / weight of the animal): 8.0 ± 0.9 ^ relative units
[2]; CCI4 + IMMP, 48 hours
  Hepatic glutathione: 14.2 ± 2.8 ng/mg of tissue
[2]; CCI4 + IMMP, 48 hours after CCI4
  Relative weight of the liver (organ weight / weight of the animal): 6.8 ± 0.7 relative units
[2]; CCI4 + IMMP, 72 hours
  Hepatic glutathione: 3.7 ± 1.6 ng/mg of tissue
[2]; CCI4 + IMMP, 72 hours after CCI4
  Relative weight of the liver (organ weight / weight of the animal): 5.7 ± 0.5 relative units
[2]; IMMP alone, no CCI4, 24 hours, 100 ng/kg i.p. x3
  Relative weight of the liver (organ weight / weight of the animal): 5.4 ± 0.5 relative units
[2]; IMMP alone, no CCI4, 48 hours, 100 ng/kg i.p. x3
  Relative weight of the liver (organ weight / weight of the animal): 5.0 ± 0.4 relative units
[2]; IMMP alone, no CCI4, 72 hours, 100 ng/kg i.p. x3
  Relative weight of the liver (organ weight / weight of the animal): 4.9 ± 0.2 relative units
[2]; IMMP alone, 24 hours
  Hepatic glutathione: 3.1 ± 1.0 ng/mg of tissue
[2]; IMMP alone, 48 hours
  Hepatic glutathione: 3.5 ± 0.3 ng/mg of tissue
[2]; IMMP alone, 72 hours
  Hepatic glutathione: 5.1 ± 0.6 ng/mg of tissue
[2]; IMMP alone, time 24
  Serum ALT: 64.0 ± 22.4 UI/L
  Serum AST: 72.4 ± 4.1 UI/L
  Serum PA (alkaline phosphatase): 525.0 ± 160 UI/L
[2]; IMMP alone, time 48
  Serum ALT: 73.1 ± 6.1 UI/L
  Serum AST: 72.5 ± 3.9 UI/L
  Serum PA (alkaline phosphatase): 804.5 ± 39.5 UI/L
[2]; IMMP alone, time 72
  Serum ALT: 71.4 ± 8.4 UI/L
  Serum AST: 71.6 ± 6.9 UI/L
  Serum PA (alkaline phosphatase): 604.0 ± 26.9 UI/L
Lymphoma LR.4; 10 doses for two weeks, from the fourth week
  Reduction of tumor growth at long term: about 50%
Lymphoma LR.4; IMMP alone, no tumor, week 0
  Body weight (control percent): 100 ± 3%
Lymphoma LR.4; IMMP alone, no tumor, week 8
  Body weight (control percent): 101 ± 3%
Lymphoma LR.4; IMMP alone, no tumor, week 12
  Body weight (control percent): 99 ± 4%
Lymphoma LR.4; IMMP alone, no tumor, week 16
  Body weight (control percent): 101 ± 4%
Lymphoma LR.4; IMMP alone, no tumor, week 20
  Body weight (control percent): 102 ± 3%
Lymphoma LR.4; IMMP alone, no tumor, week 24
  Body weight (control percent): 100 ± 3%
Lymphoma LR.4; IMMP alone, no tumor, week 28
  Body weight (control percent): 100 ± 2%
Lymphoma LR.4; IMMP alone, no tumor, week 32
  Body weight (control percent): 100 ± 5%
Lymphoma LR.4; IMMP alone, no tumor, week ±4
  Body weight (control percent): 102 ± 4%
Lymphoma LR.4; LR.4 + IMMP, week 0, 200 ng/Kg i.p., ten doses
  Body weight (control percent): 100 ± 2%
Lymphoma LR.4; LR.4 + IMMP, week 8
  Body weight (control percent): 106 ± 3 %
Lymphoma LR.4; LR.4 + IMMP, week 12
  Body weight (control percent): 118 ± 7 %
Lymphoma LR.4; LR.4 + IMMP, week 16
  Body weight (control percent): 120 ± 9 %
Lymphoma LR.4; LR.4 + IMMP, week 20
  Body weight (control percent): 119 ± 9 %
Lymphoma LR.4; LR.4 + IMMP, week 24
  Body weight (control percent): 120 ± 8 %
Lymphoma LR.4; LR.4 + IMMP, week 28
  Body weight (control percent): 119 ± 11 %
Lymphoma LR.4; LR.4 + IMMP, week 32
  Body weight (control percent): 120 ± 13 %
Lymphoma LR.4; LR.4 + IMMP, week ±4
  Body weight (control percent): 115 ± 5 %
Lymphoma LR.4; tumor + IMMP, thirty day (untreated 25% higher)
  Body weight relative to control: almost equal to that of the control
LR.4 lymphoma [3]; IMMP alone, no tumor, week 0
  Body weight (control percent): 100 ± 2%
  Survival (percent of live animals): 100%
LR.4 lymphoma [3]; IMMP alone, no tumor, week 1
  Body weight (control percent): 100 ± 4%
  Survival (percent of live animals): 100%
LR.4 lymphoma [3]; IMMP alone, no tumor, week 2
  Body weight (control percent): 100 ± 5%
  Survival (percent of live animals): 100%
LR.4 lymphoma [3]; IMMP alone, no tumor, week 3
  Body weight (control percent): 100 ± 3%
  Survival (percent of live animals): 100%
LR.4 lymphoma [3]; IMMP alone, no tumor, week 4
  Body weight (control percent): 100 ± 3%
  Survival (percent of live animals): 100%
LR.4 lymphoma [3]; IMMP alone, no tumor, week 5
  Body weight (control percent): 100 ± 4%
  Survival (percent of live animals): 100%
LR.4 lymphoma [3]; IMMP alone, no tumor, week 6
  Body weight (control percent): 100 ± 3%
  Survival (percent of live animals): 100%
LR.4 lymphoma [3]; IMMP alone, no tumor, week 7
  Body weight (control percent): 100 ± 5%
  Survival (percent of live animals): 100%
LR.4 lymphoma [3]; IMMP alone, no tumor, week 8
  Survival (percent of live animals): 100%
LR.4 lymphoma [3]; IMMP alone, no tumor, week 9
  Survival (percent of live animals): 100%
LR.4 lymphoma [3]; IMMP alone, no tumor, week 10
  Survival (percent of live animals): 100%
LR.4 lymphoma [3]; IMMP alone, no tumor, week 11
  Survival (percent of live animals): 100%
LR.4 lymphoma [3]; IMMP alone, no tumor, week 12
  Survival (percent of live animals): 100%
LR.4 lymphoma [3]; IMMP alone, no tumor, week 13
  Survival (percent of live animals): 100%
LR.4 lymphoma [3]; IMMP alone, no tumor, week 14
  Survival (percent of live animals): 100%
LR.4 lymphoma [3]; LR.4 + IMMP, week 0
  Body weight (control percent): 100 ± 2%
  Survival (percent of live animals): 100%
LR.4 lymphoma [3]; LR.4 + IMMP, week 1
  Body weight (control percent): 101 ± 4%
  Survival (percent of live animals): 100%
LR.4 lymphoma [3]; LR.4 + IMMP, week 2
  Body weight (control percent): 116 ± 6 %
  Survival (percent of live animals): 100%
LR.4 lymphoma [3]; LR.4 + IMMP, week 3
  Body weight (control percent): 125 ± 8 %
  Survival (percent of live animals): 100%
LR.4 lymphoma [3]; LR.4 + IMMP, week 4
  Body weight (control percent): 126 ± 8 %
  Survival (percent of live animals): 100%
LR.4 lymphoma [3]; LR.4 + IMMP, week 5
  Body weight (control percent): 154 ± 11 %
  Survival (percent of live animals): 100%
LR.4 lymphoma [3]; LR.4 + IMMP, week 6
  Body weight (control percent): 152 ± 12 %
  Survival (percent of live animals): 100%
LR.4 lymphoma [3]; LR.4 + IMMP, week 7
  Body weight (control percent): 150 ± 11 %
  Survival (percent of live animals): 100%
LR.4 lymphoma [3]; LR.4 + IMMP, week 8
  Survival (percent of live animals): 100%
LR.4 lymphoma [3]; LR.4 + IMMP, week 9
  Survival (percent of live animals): 67%
LR.4 lymphoma [3]; LR.4 + IMMP, week 10
  Survival (percent of live animals): 50%
LR.4 lymphoma [3]; LR.4 + IMMP, week 11
  Survival (percent of live animals): 34%
LR.4 lymphoma [3]; LR.4 + IMMP, week 12
  Survival (percent of live animals): 16%
LR.4 lymphoma [3]; LR.4 + IMMP, week 13
  Survival (percent of live animals): 16%
LR.4 lymphoma [3]; LR.4 + IMMP, week 14
  Survival (percent of live animals): 0%
LR.4 lymphoma [3]; last two weeks
  Decrease of tumor growth: about 33%
LR.4 lymphoma [3]; mouse, in vivo
  Gain in survival at 50%: greater than 4 weeks
  Time all animals kept alive longer than the untreated group: 5 weeks
Platelets [4]; normal animals
  Increase in blood platelets: ~100%
Platelets [4]; normal rats
  Platelets: 1560 ± 248* 10^3/μL
Platelets [5]; CC14 + IMMP, pretreatment 50 ng/kg each third day
  Platelets: 886 + 110^# 10^3/μL
Platelets [5]; IMMP alone, no CCI4, 50 ng/kg each third day
  Platelets: 1560 + 248* 10^3/μL
